# Laboratory results published in patent US8080252B2, “Compounds and methods of modulating angiogenesis” (The Cleveland Clinic Foundation, priority 2006, dated 2011).
# Read-outs that look alike come from different tables or passages of the source. Non-standard residues stand in square brackets, D forms with d. No end group written: not given here. pY = N[C@@H](Cc1ccc(OP(=O)(O)O)cc1)C(=O)O
# Assays:
# [1] = tested on: β3 integrin; assay: β3 integrin tyrosine phosphorylation (Tyr-747 and 759) in HUVECs, Western blot; format: cell-based, Human; settings: serum starved HUVECs, 400 nm and 800 nm SU1498
# Description: αvβ3 integrin is expressed on proliferating endothelial cells during angiogenesis and vascular remodeling and the blockade of αvβ3 integrin suppressed angiogenesis in several in vivo models. Therefore, we assessed whether the blockade of αvβ3 affected tyrosine phosphorylation of β3 subunit. […] Cells were also treated with non-immune IgG as control. These cells were washed and further induced with VEGF for 5 min at 37° C. Cell lysates were analyzed for phosphorylation of β3 integrin (Tyr-747 and 759). […] Basal level of β3 integrin tyrosine phosphorylation remains unaffected irrespective of different blocking antibody treatment. To further examine consequences of αvβ3 integrin blocking antibodies, cell lysates were analyzed for tyrosine phosphorylation of VEGFR-2 (Tyr-1175).
# Cytoplasmic domains of integrin β subunits are highly conserved and represents region of structural homology between the various groups. […] Cell lysates were analyzed for the phosphorylation of β3 integrin. […]
# Cells were lysed in immunoprecipitation lysis buffer (1% Noniodet P-40, 150 mM NaCl, 50 mM Tris-HCL (pH 7.8), 2 mM EDTA, 10 mM NaF, 10 mM Na2P2O7, 2 mM Na3VO4 10 μg/mL leupeptin, 4 μg/mL pepstatin and 0.1 U/mL aprotinin). […] Bands were analyzed by densitomeric analysis using Kodak 1D software and fold changes were indicated.
# [2] = tested on: HUVECs; assay: Cell migration assay of HUVECs on vitronectin, VEGF as agonist (Example 5); format: cell-based, Human; settings: vitronectin as substrate
# Description: (§1) To assess the role of Src-mediated β3 integrin tyrosine phosphorylation in αvβ3 integrin dependent EC migration, HUVECs transfected with various forms of Src were evaluated in migration assays using VEGF as an agonist and vitronectin as a substrate. […] To further evaluate the c-Src mediated β3 integrin cytoplasmic tyrosine motifs phosphorylation in αvβ3 integrin dependent endothelial cell migration, wild type and DiYF mouse lung microvascular endothelial cells were transfected with wild type, dominant negative and catalytically active form of c-Src and stimulated with VEGF (FIG. 23 B).
# (§2) Transwell tissue culture inserts were coated with αvβ3 integrin ligand vitronectin for 24 h at 4° C. Endothelial cells were transfected with various forms of c-Src or treated with inhibitors and were trypsinized; then 1×10^5 cells were added into each well. Cells were allowed to migrate for 12 h and fixed with 70% methanol for 15 min and stained with Giemsa. The non-migrated cells adhered to the top surface were removed and three random 10× fields were photographed using an inverted phase contrast microscopy.
# [3] = tested on: HUVECs (Human Umbilical vascular endothelial cells); settings: HUVECs on Matrigel, 8 h
# Source text: The tube formation was observed using an inverted phase contrast microscope (Leica) and photographs were taken from each well. Using ImagePro software, the degree of tube formation was quantified by measuring the length of tubes in random fields.
# [4] = target: T1, αvβ3 integrin (Homo sapiens, UniProt P05106+P06756); assay: WOW-1 binding assay in HUVECs (αvβ3 integrin activation, FACS); format: cell-based; settings: 20 ng/mL
# T1 construct: Semiconfluent HUVECs were serum starved for 4 h and further stimulated with 20 ng/mL VEGF-A165 or VEGFDΔNΔC; endogenous in cells; host or cells: HUVEC
# Description: Semiconfluent HUVECs were serum starved for 4 h and further stimulated with 20 ng/mL VEGF-A165 or VEGFDΔNΔC. WOW-1 Fab was added to a final concentration of 30 μg/mL, followed by addition of FITC-conjugated goat anti-mouse IgG at 10 μg/mL. After 30 min cells were fixed with 3.7% formaldehyde in PBS for 15 min, washed twice with PBS, and fluorescence-activated cell sorting (FACS) was performed using a FACS Calibur (Becton Dickinson, San Jose, Calif.) and data were analyzed using CellQuest software.
# Semiconfluent HUVECs were transfected with various forms of c-Src or Src++. SYF, SYF+Src cells were serum starved for 4 h and further stimulated with 20 ng/mL VEGF-A165 or b-FGF. WOW-1 Fab was added at a final concentration of 30 μg/mL, followed by addition of FITC-conjugated goat anti-mouse IgG at 10 μg/mL. After 30 min cells were fixed with 3.7% formaldehyde/PBS for 15 min, washed twice with PBS, and FACS analysis was performed as described above.
# [5] = tested on: mouse lung endothelial cells; settings: 20 ng/ml VEGF, 8 h
# Description: The formation of vascular tube-like structures by wild type and DiYF mouse lung endothelial cells were assessed on the basement membrane matrix preparation. Six well plates were coated with 0.5 ml of Matrigel according to the manufacturer's instructions. Wild type and DiYF mouse lung endothelial cells were detached from the tissue culture flasks using 20 mM EDTA. Cells were washed twice with sterile 1×PBS and seeded on Matrigel coated plate. Medium was supplemented with or without 20 ng/ml VEGF and further incubated at 37° C. for 8 h. The tube formation was observed using an inverted phase contrast microscope (Leica) and photographs were taken from each well. Using ImagePro software, the degree of tube formation was quantified by measuring the length of tubes in random fields.
# [6] = tested on: mouse lung endothelial cells; settings: WT EC
# Description: Transwell tissue culture inserts were coated with various integrin ligands for 24 h at 4° C. Both WT and DiYF lung endothelial cells were trypsinized and 1×10^5 cells were added into each well. The lower chamber contained varying concentrations of VEGF-A165 (0-20 ng/ml). Cells were allowed to migrate for 12 h and fixed with 3.7% formaldehyde/PBS for 15 min and stained with 0.5% crystal violet. The non-migrated cells adhered to the top surface were removed and three random 10× fields were photographed using Leica inverted phase contrast microscope.
# [7] = target: T2, VEGFR-2 (Mus musculus, UniProt P35918); assay: VEGFR-2 phosphorylation time course in WT and DiYF mouse endothelial cells; format: cell-based; settings: 20 ng/ml VEGF
# T2 construct: Serum starved wild type and DiYF endothelial cells were also treated with 20 ng/ml VEGF for 0-60 mins; endogenous in cells; host or cells: primary mouse lung endothelial cells (WT and DiYF knock-in, C57/Bl6)
# Description: Serum starved wild type and DiYF endothelial cells were also treated with 20 ng/ml VEGF for 0-60 mins. Cell lysates were analyzed by Western blot using anti-integrin β3 [pY^747], anti-integrin [pY^759], anti-p-VEGFR-2, anti-VEGFR-2, anti-p-ERK1/2, anti-ERK1/2, anti-p-Akt, anti-Akt, anti-p-P38MAPK and anti-MAPK antibody. The wild type and DiYF endothelial cells were lysed and equal proteins from total cell lysates were subjected SDS-PAGS and analyzed by western blot using anti-VEGFR-2 and anti-CD-31 antibody.
# [8] = tested on: αvβ3 integrin; assay: Fibrinogen binding assay, WT and DiYF mouse lung endothelial cells (FACS); format: cell-based; settings: 20 ng/ml VEGF or 1 mM MnCl2
# Description: To assess fibrinogen binding, semiconfluent wild type and DiYF mouse lung endothelial cells were serum starved for 4 h and further induced with 20 ng/ml VEGF-165, 20 ng/ml b-FGF or 1 mm MnCl2. Fluorescein isothiocyanate (FITC)-labeled fibrinogen was added at a final concentration of 200 nM for 45 min. […] Fluorescence-activated cell sorting (FACS) was performed using a FACS Calibur (Becton Dickinson, San Jose, Calif.) and data were analyzed using CellQuest software program.
# [9] = tested on: αvβ3 integrin; assay: WOW-1 binding assay, WT and DiYF mouse lung endothelial cells (FACS); format: cell-based; settings: 20 ng/ml VEGF or 1 mM MnCl2
# Description: Wild type and DiYF mouse lung endothelial cells were serum starved for 4 h and further stimulated with 20 ng/ml VEGF-165, 20 ng/ml b-FGF or 1 mm MnCl2 separately. WoW-1 Fab was added at a final concentration of […], followed by addition of Fluorescein isothiocyanate (FITC) conjugated goat anti-mouse IgG at 10 μg/ml. After 30 min cells were fixed with 3.7% formaldehyde/PBS for 15 min, washed twice with 1×PBS and FACS was performed using a FACS Calibur (Becton Dickinson, San Jose, Calif.) instrument and data were analyzed using CellQuest software program.
# [10] = tested on: mouse lung microvascular endothelial cells
# Description: as §1, §2
# [11] = tested on: angiogenesis in VEGF-A-containing Matrigel; assay: Matrigel plug assay, neovascularization by hemoglobin assay (Example 4); format: in vivo; settings: 50 mM peptide in 500 μL Matrigel with VEGF (60 ng/mL) and heparin, subcutaneous, 7 days, C57/Bl6 mice
# Description: Matrigel plug assays were performed in age- and sex-matched C57/Bl6 background mice. Each animal received an abdominal subcutaneous injection of 500 μL Matrigel mixed with VEGF (60 ng/mL), heparin (60 units/mL) and 50 mM of control ([…] G DTANNPL […]-COOH) (SEQ ID NO: 14) or beta-3 integrin cytoplasmic domain inhibitory peptide ([…] G DTANNPL Yp […]-COOH) (SEQ ID NO: 2). After 7 days, the animals were euthanized and dissected. Matrigel plugs were removed and digested using 5 mL Drabkin reagent and neovascularization was assessed using a hemoglobin assay as per the manufacturer's protocol (FIG. 16).
# T2 sequence (P35918 20-1345): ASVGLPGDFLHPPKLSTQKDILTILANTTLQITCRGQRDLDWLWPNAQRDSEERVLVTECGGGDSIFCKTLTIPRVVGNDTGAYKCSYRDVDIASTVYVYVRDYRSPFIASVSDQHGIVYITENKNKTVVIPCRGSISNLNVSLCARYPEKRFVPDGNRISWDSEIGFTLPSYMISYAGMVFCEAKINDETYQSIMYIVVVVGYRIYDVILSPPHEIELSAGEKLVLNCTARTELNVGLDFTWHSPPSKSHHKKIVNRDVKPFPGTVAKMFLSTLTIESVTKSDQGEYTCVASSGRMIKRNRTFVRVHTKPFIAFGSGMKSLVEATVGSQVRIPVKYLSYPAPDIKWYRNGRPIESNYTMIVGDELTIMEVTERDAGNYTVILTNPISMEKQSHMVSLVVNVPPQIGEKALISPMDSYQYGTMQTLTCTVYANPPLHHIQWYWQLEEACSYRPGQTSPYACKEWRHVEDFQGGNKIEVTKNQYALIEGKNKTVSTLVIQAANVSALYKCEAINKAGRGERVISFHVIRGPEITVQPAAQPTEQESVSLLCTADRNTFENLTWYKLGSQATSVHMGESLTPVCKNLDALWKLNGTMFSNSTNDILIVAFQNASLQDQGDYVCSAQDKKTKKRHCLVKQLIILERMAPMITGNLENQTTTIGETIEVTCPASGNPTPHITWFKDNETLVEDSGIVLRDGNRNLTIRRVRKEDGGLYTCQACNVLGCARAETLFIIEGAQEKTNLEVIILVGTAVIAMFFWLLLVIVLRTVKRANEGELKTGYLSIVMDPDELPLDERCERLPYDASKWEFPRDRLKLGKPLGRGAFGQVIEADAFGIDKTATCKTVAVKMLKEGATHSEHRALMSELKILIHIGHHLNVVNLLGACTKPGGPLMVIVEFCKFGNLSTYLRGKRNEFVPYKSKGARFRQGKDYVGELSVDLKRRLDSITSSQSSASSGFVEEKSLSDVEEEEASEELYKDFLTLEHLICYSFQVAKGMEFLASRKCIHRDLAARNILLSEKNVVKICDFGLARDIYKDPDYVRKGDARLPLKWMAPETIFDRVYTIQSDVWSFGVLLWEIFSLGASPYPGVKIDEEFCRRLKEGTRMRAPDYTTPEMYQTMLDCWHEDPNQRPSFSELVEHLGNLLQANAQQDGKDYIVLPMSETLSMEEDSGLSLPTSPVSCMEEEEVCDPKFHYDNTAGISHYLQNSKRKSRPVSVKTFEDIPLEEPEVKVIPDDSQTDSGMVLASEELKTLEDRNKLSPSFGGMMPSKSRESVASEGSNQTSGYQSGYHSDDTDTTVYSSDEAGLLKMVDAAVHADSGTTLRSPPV
# T1 sequence (P06756 31-1048): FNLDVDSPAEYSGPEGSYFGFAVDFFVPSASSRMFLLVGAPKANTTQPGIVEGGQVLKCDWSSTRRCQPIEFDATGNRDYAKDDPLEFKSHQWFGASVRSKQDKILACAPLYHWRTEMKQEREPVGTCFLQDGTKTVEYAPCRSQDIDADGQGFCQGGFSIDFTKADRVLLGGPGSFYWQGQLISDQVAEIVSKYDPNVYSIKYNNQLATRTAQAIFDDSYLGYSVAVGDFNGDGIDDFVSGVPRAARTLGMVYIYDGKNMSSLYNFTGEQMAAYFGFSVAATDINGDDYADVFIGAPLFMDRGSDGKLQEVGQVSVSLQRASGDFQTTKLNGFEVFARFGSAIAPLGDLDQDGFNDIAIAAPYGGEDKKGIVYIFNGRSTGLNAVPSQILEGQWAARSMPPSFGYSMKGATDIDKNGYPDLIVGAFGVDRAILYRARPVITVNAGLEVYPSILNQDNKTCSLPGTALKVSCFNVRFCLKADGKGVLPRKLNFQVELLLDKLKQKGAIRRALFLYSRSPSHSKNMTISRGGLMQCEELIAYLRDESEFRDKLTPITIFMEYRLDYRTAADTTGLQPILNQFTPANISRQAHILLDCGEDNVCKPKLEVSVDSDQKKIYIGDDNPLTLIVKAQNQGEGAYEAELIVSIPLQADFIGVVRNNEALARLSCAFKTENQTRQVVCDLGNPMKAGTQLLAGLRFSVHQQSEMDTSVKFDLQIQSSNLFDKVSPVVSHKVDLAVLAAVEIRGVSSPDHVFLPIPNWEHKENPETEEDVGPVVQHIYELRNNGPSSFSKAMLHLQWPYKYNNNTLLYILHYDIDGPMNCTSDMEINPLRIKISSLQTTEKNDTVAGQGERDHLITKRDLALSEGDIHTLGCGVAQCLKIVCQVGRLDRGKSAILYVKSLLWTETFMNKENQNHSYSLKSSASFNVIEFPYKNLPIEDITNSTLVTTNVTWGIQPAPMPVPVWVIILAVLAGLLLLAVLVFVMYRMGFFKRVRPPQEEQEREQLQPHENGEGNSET
# T1 sequence (P05106 27-788): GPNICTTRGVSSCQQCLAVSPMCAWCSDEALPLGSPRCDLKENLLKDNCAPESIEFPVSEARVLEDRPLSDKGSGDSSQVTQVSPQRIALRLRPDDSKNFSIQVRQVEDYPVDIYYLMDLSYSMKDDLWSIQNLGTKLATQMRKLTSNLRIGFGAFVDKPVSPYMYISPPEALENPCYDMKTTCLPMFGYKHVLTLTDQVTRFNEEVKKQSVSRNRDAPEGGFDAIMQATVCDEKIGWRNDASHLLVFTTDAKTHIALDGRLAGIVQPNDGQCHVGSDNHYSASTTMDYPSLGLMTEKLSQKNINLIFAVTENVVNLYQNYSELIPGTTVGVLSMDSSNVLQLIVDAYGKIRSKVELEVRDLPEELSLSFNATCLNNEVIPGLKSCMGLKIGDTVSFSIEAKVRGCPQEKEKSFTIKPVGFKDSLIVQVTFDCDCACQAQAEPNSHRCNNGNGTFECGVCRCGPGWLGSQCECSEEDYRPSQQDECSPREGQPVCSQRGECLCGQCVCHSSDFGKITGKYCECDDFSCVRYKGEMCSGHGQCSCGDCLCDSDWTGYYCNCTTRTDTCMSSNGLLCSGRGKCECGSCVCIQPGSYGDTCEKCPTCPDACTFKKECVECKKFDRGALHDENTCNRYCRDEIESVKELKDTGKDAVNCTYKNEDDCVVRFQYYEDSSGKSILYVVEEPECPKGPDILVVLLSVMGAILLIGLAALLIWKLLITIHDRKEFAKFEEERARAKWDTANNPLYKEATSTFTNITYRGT
molecule,measurement,setting,value
CC(C)c1cc(/C=C(\C#N)C(=O)NCCCc2ccccc2)cc(C(C)C)c1O [SU1498],effect on VEGF induced β3 integrin cytoplasmic tyrosine residue phosphorylation,[1],significantly reduced
same,effect on EC migration triggered by VEGF,[2],reduced EC migration triggered by VEGF
VEGF,endothelial cell tube formation induced,[3],at least 450 μm/mm^2
same,increase of WOW-1 binding to EC compared to resting cells,[4],6 fold
same,effect on the length of the tubes,[5]; DiYF EC,little effect
same,increase in the length of the tubes,[5]; WT EC,about 3 fold
same,increase of migration compared to untreated EC,[6]; VEGF 5 ng/ml,1.5 fold
same,increase of migration compared to untreated EC,[6]; VEGF 10 ng/ml,2.5 fold
same,increase of migration compared to untreated EC,[6]; VEGF 20 ng/ml,2.9 fold
same,maximum increase in VEGFR-2 phosphorylation over control,[7]; DiYF EC,2.5 fold
same,maximum increase in VEGFR-2 phosphorylation over control,[7]; WT EC,6 fold
same,increase of fibrinogen binding,[8]; DiYF EC,3 fold
same,increase of fibrinogen binding,[8]; WT EC,at least 6 fold
same,increase in WOW-1 binding,[9]; DiYF EC,3.5 fold
same,increase in WOW-1 binding,[9]; WT EC,9 fold
same,increase in endothelial cell migration,[10]; CA-Src transfected wild type endothelial cells,3.5 fold
same,increase in endothelial cell migration,[10]; WT-Src transfected wild type endothelial cells,2.5 fold
YGRKKRRQRRR G DTANNPL Yp KEATSTFT-COOH (YGRKKRRQRRRGDTANNPL[pY]KEATSTFT-OH; N-terminus assumed; SMILES CC(C)C[C@H](NC(=O)[C@@H]1CCCN1C(=O)[C@H](CC(N)=O)NC(=O)[C@H](CC(N)=O)NC(=O)[C@H](C)NC(=O)[C@@H](NC(=O)[C@H](CC(=O)O)NC(=O)CNC(=O)[C@H](CCCNC(=N)N)NC(=O)[C@H](CCCNC(=N)N)NC(=O)[C@H](CCCNC(=N)N)NC(=O)[C@H](CCC(N)=O)NC(=O)[C@H](CCCNC(=N)N)NC(=O)[C@H](CCCNC(=N)N)NC(=O)[C@H](CCCCN)NC(=O)[C@H](CCCCN)NC(=O)[C@H](CCCNC(=N)N)NC(=O)CNC(=O)[C@@H](N)Cc1ccc(O)cc1)[C@@H](C)O)C(=O)N[C@@H](Cc1ccc(OP(=O)(O)O)cc1)C(=O)N[C@@H](CCCCN)C(=O)N[C@@H](CCC(=O)O)C(=O)N[C@@H](C)C(=O)N[C@H](C(=O)N[C@@H](CO)C(=O)N[C@H](C(=O)N[C@@H](Cc1ccccc1)C(=O)N[C@H](C(=O)O)[C@@H](C)O)[C@@H](C)O)[C@@H](C)O; listed as Homo sapiens) [SEQ ID NO: 2],"hemoglobin concentration in Matrigel plugs, fold lower compared to control peptide",[11],at least 3.5 fold
